From patent publication US20130130175A1, “Compound for Photoacid Generator, Resist Composition Using the Same, and Pattern-Forming Method” (CENTRAL GLASS COMPANY, LIMITED, priority 2007, published 2013) come the findings set out here.

Molecules are shown by their SMILES. Read-outs that look alike come from different tables or passages of the source.

The data set is described as follows: Solubility in propylene glycol methyl ether acetate. It counts as physicochemical. The source says: 1.0 g of sodium 2-(1′-adamantane)carbonyloxy-1,1-difluoroethanesulfonate synthesized in Synthesis Example 8 was weighed and added to 100 g of propylene glycol methyl ether acetate, followed by stirring.
1.0 g of sodium 2-(3′-hydroxy-1′-adamantane)carbonyloxy-1,1-difluoroethanesulfonate synthesized in Synthesis Example 11 was weighed and added to 100 g of propylene glycol methyl ether acetate, followed by stirring.

As to `O=C(OCC(F)(F)S(=O)(=O)O)C12CC3CC(CC(C3)C1)C2` [Synthesis Example 8, triphenylsulfonium 2-(1′-adamantane)carbonyloxy-1,1-difluoroethanesulfonate], the Solubility result is listed as “completely dissolved”.

Regarding `O=C(OCC(F)(F)S(=O)(=O)O)C12CC3CC(CC(O)(C3)C1)C2` [Synthesis Example 11, triphenylsulfonium 2-(3′-hydroxy-1′-adamantane)carbonyloxy-1,1-difluoroethanesulfonate], for the setting “1.0 g added to 100 g of propylene glycol methyl ether acetate, stirring”, the Solubility result was “completely dissolved”.
